Article doi:10.1101/2025.08.13.670122v1 (bioRxiv, 2025)
Peptide text beside a SMILES is read from it.

How the values were obtained:
AT1R [1] = target: T1, AT1R (Homo sapiens, UniProt P30556); experiment: Gαq activation BRET (GABY sensor) in HEK293 cells expressing AT1R; type: cell-based; parameters: expressed in transfected cells; host or cells: HEK293 cells, transient PEI transfection; conditions: for Emax Gαq (% AngII): HEK293/AT1R, GABY BRET sensor, response of the ligand at 10 μM, normalised to AngII; for EC50: HEK293 cells transiently expressing human AT1R, Gαq-RlucII/Gβ1/Gγ1-GFP10 (GABY) BRET sensor, BRET read 10 min after ligand, mean ± SEM of at least three to five independent experiments
T1 sequence (P30556 1-359): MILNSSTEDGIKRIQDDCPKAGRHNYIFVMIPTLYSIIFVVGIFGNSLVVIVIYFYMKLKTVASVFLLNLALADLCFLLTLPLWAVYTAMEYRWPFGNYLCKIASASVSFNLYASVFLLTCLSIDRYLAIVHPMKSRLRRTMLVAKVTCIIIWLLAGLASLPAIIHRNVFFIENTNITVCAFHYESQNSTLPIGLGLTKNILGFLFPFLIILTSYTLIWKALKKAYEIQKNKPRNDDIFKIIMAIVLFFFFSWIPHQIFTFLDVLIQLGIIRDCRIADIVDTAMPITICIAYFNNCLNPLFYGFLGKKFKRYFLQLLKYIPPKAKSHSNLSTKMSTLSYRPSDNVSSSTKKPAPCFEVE
From the text: (§1) We utilized a clonal cell line HEK293, referred to hereafter as HEK293 cells, which has been previously described.[7],[8] As a gracious gift from A. Inoue (Tohoku University, Sendai, Miyagi, Japan), CRISPR Gαq/11 and Gα12/13 knockout cell lines (ΔGq/11 and ΔG12/13, respectively), were derived as previously explained.[48] In brief, a CRISPR-Cas9 system was used to target either GNAQ and GNA11 or GNA12 and GNA13 genes in HEK293T cells simultaneously to generate the Gαq/11 and Gα12/13 knockout cell lines. For the production of adenovirus, we utilized HEK293A cells. All cells were grown in DMEM supplemented with 10% FBS and Penicillin-Streptomycin-L-Glutamine (10000 IU penicillin, 10000 µg/mL Streptomycin, 200 mM L-Glutamine) at 37°C in T175 flasks under a 5% CO2 humidified chamber. Periodic testing was carried out for mycoplasma contamination (ABM™, Mycoplasma PCR Detection kit). For all biosensors used, cells underwent transfection with the PEI reagent, employing a PEI:DNA ratio of 3:1. For the Gαq biosensor, HEK293 cells were transfected with the plasmids coding for Gαq-RLucII (120 ng), Gβ1 (3000 ng), Gγ1-GFP10 (3000 ng), human AT1 (3000 ng) and Salmon sperm DNA (SSD) (880 ng). For the β-arrestin2 recruitment assay, HEK293 cells were transfected with the plasmids coding for 120 ng β-arrestin-2-RLucII, 3000 ng AT1, 3000 ng rGFP-CAAX, and 3880 ng SSD. For the measurement of PKC, HEK293 cells were transfected with 3000 ng AT1, 600 ng PKC-c1b, and 6400 ng SSD. […] 100 µL of the cell/DNA mixture was added to white 96-well plates and incubated at 37°C at 5% CO2 for 48 h. For the Rho assay, ΔG12/13 cells were seeded at a density of 9,000 cells per well in poly-ornithine-coated white 96-well plates and transfected the following day. In brief, 1 μg of total DNA in 100 μL of PBS was mixed with 100 μL of PBS containing 3 μL of 1 mg/mL PEI. For Rho signaling, 150 ng of AT1R DNA with 25 ng of PKN-RBD-RlucII [8], and 100 ng of rGFP-CAAX were used. Empty pcDNA was used to reach 1 µg of the total DNA amount in 100 μL of PBS. The DNA was then mixed with 100 μL of PBS containing 3 μL of 1 mg/mL PEI. After a 20-min incubation, the DNA/PEI complexes were dispensed into cells in 96-well plates (15 µL/well), and the experiment was carried out 48 h post-transfection.
(§2) On the day of the experiment, each well was washed with 80 µL of Tyrode’s buffer (140 mM NaCl, 2.7 mM KCl, 1 mM CaCl2, 12 mM NaHCO3, 5.6 mM D-glucose, 0.5 mM MgCl2, 0.37 mM NaH2PO4, 25 mM Hepes (pH 7.4)). This was followed by incubation for 1 h in Tyrode’s buffer at room temperature. For the Gαq, β-arrestin-2, and PKC biosensors used in HEK293 cells, coelenterazine 400A (at a final concentration of 5 μM) was added 10 min before stimulation. Cells were then stimulated with increasing doses of the indicated ligand, and BRET signals were measured using a Tristar2 (Berthold) microplate reader 10 min later. For the PKC and Rho biosensors in VSMCs, and the Rho biosensor in ΔG12/13 cells, cells were similarly stimulated with ligands for 1 min, 1 min 30 s, and 3 min, respectively, before BRET measurement. […] BRET signals were then measured using a Synergy2 (BioTek) microplate reader. The applied filter set was 410/80 nm and 515/30 nm, designed to detect the light emissions of RlucII (Renilla luciferase) (donor) and rGFP (acceptor), respectively.

AT1R [2] = target: T1, AT1R; experiment: β-arrestin2 recruitment BRET (β-arrestin2-RLucII/rGFP-CAAX) in HEK293 cells expressing AT1R; type: cell-based; parameters: expressed in transfected cells; host or cells: HEK293 cells, transient PEI transfection; conditions: for Emax βarr2 (% AngII): HEK293/AT1R, β-arrestin2 BRET, response of the ligand at 10 μM, normalised to AngII; for EC50: HEK293 cells transiently expressing AT1R, β-arrestin2-RLucII/rGFP-CAAX BRET, read 10 min after ligand, mean ± SEM of at least three to five independent experiments, SEM, read-out: EC50 βarr2
From the text: as §1, §2

Row | Structure (SMILES) | Emax Gαq (% AngII) (AT1R [1]) | EC50 (AT1R [1]; SEM) [nM] | Emax βarr2 (% AngII) (AT1R [2]) | EC50 (AT1R [2]) [nM] | EC50 (AT1R [1]) [nM]
1 | CC[C@H](C)[C@H](NC(=O)[C@H](Cc1ccc(O)cc1)NC(=O)[C@@H](NC(=O)[C@H](CCCNC(=N)N)NC(=O)[C@@H](N)CC(=O)O)C(C)C)C(=O)N[C@@H](Cc1c[nH]cn1)C(=O)N1CCC[C@H]1C(=O)N[C@@H](Cc1cccc(O)c1)C(=O)O [24b] | 49 | 4.6 ± 3 | 93 | 2.8 ± 0.6 | 
2 | CC[C@H](C)[C@H](NC(=O)[C@H](Cc1ccc(O)cc1)NC(=O)[C@@H](NC(=O)[C@H](CCCN=C(N)N)NC(=O)[C@@H](N)CC(=O)O)C(C)C)C(=O)N[C@@H](Cc1c[nH]cn1)C(=O)N1CCC[C@H]1C(=O)N[C@@H](Cc1ccc(O)cc1)C(=O)O [24c] (H-DRVYIHPY-OH) |  | 4.2 ± 1.3 |  | 2.6 ± 0.8 | 
3 | CC[C@H](C)[C@H](NC(=O)[C@H](Cc1ccc(O)cc1)NC(=O)[C@@H](NC(=O)[C@H](CCCNC(=N)N)NC(=O)[C@@H](N)CC(=O)O)C(C)C)C(=O)N[C@@H](Cc1c[nH]cn1)C(=O)N1CCC[C@H]1C(=O)N[C@@H](Cc1ccc(O)cc1)C(=O)O [24c] (H-DRVYIHPY-OH) | 89 |  | 105 |  | 
4 | CCCC[C@H](NC(=O)[C@@H]1CCCN1C(=O)[C@H](Cc1c[nH]cn1)NC(=O)[C@@H](NC(=O)[C@H](Cc1ccc(O)cc1)NC(=O)[C@@H](NC(=O)[C@H](CCCNC(=N)N)NC(=O)[C@@H](N)CC(=O)O)C(C)C)[C@@H](C)CC)C(=O)O [compound 2] | 36 | 3 ± 3.6 | 92 | 0.86 ± 0.16 | 
5 | CC[C@H](C)[C@H](NC(=O)[C@H](Cc1ccc(O)cc1)NC(=O)[C@@H](NC(=O)[C@H](CCCNC(=N)N)NC(=O)[C@@H](N)CC(=O)O)C(C)C)C(=O)N[C@@H](Cc1c[nH]cn1)C(=O)N1CCC[C@H]1C(=O)N[C@H](C(=O)O)C(C)(C)C [compound 3] | 19 | 0.36 ± 0.84 | 81 | 2.3 ± 0.4 | 
6 | CC[C@H](C)[C@H](NC(=O)[C@H](Cc1ccc(O)cc1)NC(=O)[C@@H](NC(=O)[C@H](CCCNC(=N)N)NC(=O)[C@@H](N)CC(=O)O)C(C)C)C(=O)N[C@@H](Cc1c[nH]cn1)C(=O)N1CCC[C@H]1C(=O)N[C@@H](CC1CCCCC1)C(=O)O [compound 4] | 52 | 5.5 ± 3.9 | 95 | 1.4 ± 0.2 | 
7 | CC[C@H](C)[C@H](NC(=O)[C@H](Cc1ccc(O)cc1)NC(=O)[C@@H](NC(=O)[C@H](CCCNC(=N)N)NC(=O)[C@@H](N)CC(=O)O)C(C)C)C(=O)N[C@@H](Cc1c[nH]cn1)C(=O)N1CCC[C@H]1C(=O)N[C@@H](CCCN)C(=O)O [compound 5] |  |  | 45 | 4560 ± 3880 | > 10000
8 | CC[C@H](C)[C@H](NC(=O)[C@H](Cc1ccc(O)cc1)NC(=O)[C@@H](NC(=O)[C@H](CCCNC(=N)N)NC(=O)[C@@H](N)CC(=O)O)C(C)C)C(=O)N[C@@H](Cc1c[nH]cn1)C(=O)N1CCC[C@H]1C(=O)N[C@@H](CCC(=O)O)C(=O)O [compound 6] (H-DRVYIHPE-OH; N-terminus assumed) |  |  | 63 | 957 ± 111 | > 10000
9 | CC[C@H](C)[C@H](NC(=O)[C@H](Cc1ccc(O)cc1)NC(=O)[C@@H](NC(=O)[C@H](CCCNC(=N)N)NC(=O)[C@@H](N)CC(=O)O)C(C)C)C(=O)N[C@@H](Cc1c[nH]cn1)C(=O)N1CCC[C@H]1C(=O)N[C@@H](CCC(N)=O)C(=O)O [compound 7] (H-DRVYIHPQ-OH; N-terminus assumed) |  |  | 56 | 158 ± 20 | > 10000
10 | CC[C@H](C)[C@H](NC(=O)[C@H](Cc1ccc(O)cc1)NC(=O)[C@@H](NC(=O)[C@H](CCCNC(=N)N)NC(=O)[C@@H](N)CC(=O)O)C(C)C)C(=O)N[C@@H](Cc1c[nH]cn1)C(=O)N1CCC[C@H]1C(=O)N[C@@H](Cc1cccc2ccccc12)C(=O)O [compound 8] | 61 | 8.3 ± 5.1 | 101 | 2.1 ± 0.4 | 
11 | CC[C@H](C)[C@H](NC(=O)[C@H](Cc1ccc(O)cc1)NC(=O)[C@@H](NC(=O)[C@H](CCCNC(=N)N)NC(=O)[C@@H](N)CC(=O)O)C(C)C)C(=O)N[C@@H](Cc1c[nH]cn1)C(=O)N1CCC[C@H]1C(=O)N[C@@H](Cc1ccc2ccccc2c1)C(=O)O [compound 9] | 69 | 3.9 ± 1.9 | 97 | 1 ± 0.3 | 
12 | C=CCOc1ccc(C[C@H](NC(=O)[C@@H]2CCCN2C(=O)[C@H](Cc2c[nH]cn2)NC(=O)[C@@H](NC(=O)[C@H](Cc2ccc(O)cc2)NC(=O)[C@@H](NC(=O)[C@H](CCCNC(=N)N)NC(=O)[C@@H](N)CC(=O)O)C(C)C)[C@@H](C)CC)C(=O)O)cc1 [compound 10] | 48 | 17 ± 10 | 100 | 7.4 ± 1.9 | 
13 | CC[C@H](C)[C@H](NC(=O)[C@H](Cc1ccc(O)cc1)NC(=O)[C@@H](NC(=O)[C@H](CCCNC(=N)N)NC(=O)[C@@H](N)CC(=O)O)C(C)C)C(=O)N[C@@H](Cc1c[nH]cn1)C(=O)N1CCC[C@H]1C(=O)N[C@@H](Cc1ccc(-c2ccccc2)cc1)C(=O)O [compound 13] | 45 | 16 ± 12 | 98 | 15 ± 4 | 
14 | CC[C@H](C)[C@H](NC(=O)[C@H](Cc1ccc(O)cc1)NC(=O)[C@@H](NC(=O)[C@H](CCCNC(=N)N)NC(=O)[C@@H](N)CC(=O)O)C(C)C)C(=O)N[C@@H](Cc1c[nH]cn1)C(=O)N1CCC[C@H]1C(=O)N[C@H](C(=O)O)C(c1ccccc1)c1ccccc1 [compound 15] | 99 | 7.9 ± 1.7 | 109 | 6.7 ± 0.8 | 
